Measured values: PubChem BioAssay (NCI)
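Step 1: Grow cells in 96-well plates. Step 2: Expose to compound for 48 hours at 5 concentrations. Step 3: Interpolate endpoints linearly; if unreached, use highest concentration. Here, GI50 denotes the concentration required for 50% inhibition of growth. TGI: concentration producing complete growth inhibition.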

Columns and labels:
Assay in all cases: DTP human tumour cell line panel, 48 h
786-0 renal = tested on: 786-0 renal
A549 NSCLC = tested on: A549 NSCLC
ACHN renal = tested on: ACHN renal
CCRF-CEM leukemia = tested on: CCRF-CEM leukemia
COLO 205 colon = tested on: COLO 205 colon
DLD-1 colon = tested on: DLD-1 colon
EKVX NSCLC = tested on: EKVX NSCLC
HCC-2998 colon = tested on: HCC-2998 colon
HCT-15 colon = tested on: HCT-15 colon
HL-60(TB) leukemia = tested on: HL-60(TB) leukemia
HOP-18 NSCLC = tested on: HOP-18 NSCLC
HOP-92 NSCLC = tested on: HOP-92 NSCLC
IGROV1 ovarian = tested on: IGROV1 ovarian
K-562 leukemia = tested on: K-562 leukemia
KM12 colon = tested on: KM12 colon
KM20L2 colon = tested on: KM20L2 colon
LOX IMVI melanoma = tested on: LOX IMVI melanoma
M14 melanoma = tested on: M14 melanoma
M19-MEL melanoma = tested on: M19-MEL melanoma
MALME-3M melanoma = tested on: MALME-3M melanoma
MOLT-4 leukemia = tested on: MOLT-4 leukemia
NCI-H226 lung = tested on: NCI-H226 lung
NCI-H23 lung = tested on: NCI-H23 lung
NCI-H522 lung = tested on: NCI-H522 lung
OVCAR-3 ovarian = tested on: OVCAR-3 ovarian
OVCAR-5 ovarian = tested on: OVCAR-5 ovarian
OVCAR-8 ovarian = tested on: OVCAR-8 ovarian
RPMI-8226 leukemia = tested on: RPMI-8226 leukemia
RXF 393 renal = tested on: RXF 393 renal
RXF-631 renal = tested on: RXF-631 renal
SF-268 CNS = tested on: SF-268 CNS
SF-295 CNS = tested on: SF-295 CNS
SF-539 CNS = tested on: SF-539 CNS
SK-MEL-2 melanoma = tested on: SK-MEL-2 melanoma
SK-MEL-28 melanoma = tested on: SK-MEL-28 melanoma
SK-OV-3 ovarian = tested on: SK-OV-3 ovarian
SN12C renal = tested on: SN12C renal
SNB-19 CNS = tested on: SNB-19 CNS
SNB-75 CNS = tested on: SNB-75 CNS
SNB-78 CNS = tested on: SNB-78 CNS
SR leukemia = tested on: SR leukemia
SW-620 colon = tested on: SW-620 colon
TK-10 renal = tested on: TK-10 renal
UACC-257 melanoma = tested on: UACC-257 melanoma
UACC-62 melanoma = tested on: UACC-62 melanoma
UO-31 renal = tested on: UO-31 renal
XF 498 CNS = tested on: XF 498 CNS

In the case of `CC(O)C(N=Cc1ccccc1[O-])C(=O)[O-].CC(O)C(N=Cc1ccccc1[O-])C(=O)[O-].[Co+2]` (centres undefined), the GI50 (786-0 renal) is reported as greater than 100 µM, the TGI (786-0 renal) is reported as greater than 100 µM and the GI50 (A549 NSCLC) is reported as greater than 100 µM. It also gave a TGI (A549 NSCLC) greater than 100 µM, a GI50 (ACHN renal) greater than 100 µM and a TGI (ACHN renal) greater than 100 µM. For the same compound, the GI50 (CCRF-CEM leukemia) was 20.1 µM, the TGI (CCRF-CEM leukemia) was greater than 100 µM and the GI50 (COLO 205 colon) was greater than 100 µM. For the same compound, the TGI (COLO 205 colon) was greater than 100 µM, the GI50 (DLD-1 colon) was 83.7 µM and the TGI (DLD-1 colon) was greater than 100 µM. It also gave a GI50 (EKVX NSCLC) greater than 100 µM, a TGI (EKVX NSCLC) greater than 100 µM and a GI50 (HCC-2998 colon) of 59.8 µM. For the same compound, the TGI (HCC-2998 colon) was greater than 100 µM, the GI50 (HCT-15 colon) was greater than 100 µM and the TGI (HCT-15 colon) was greater than 100 µM. It also gave a GI50 (HL-60(TB) leukemia) of 39.1 µM, a TGI (HL-60(TB) leukemia) greater than 100 µM and a GI50 (HOP-18 NSCLC) of 70.8 µM. It also gave a TGI (HOP-18 NSCLC) greater than 100 µM, a GI50 (HOP-92 NSCLC) of 47.7 µM and a TGI (HOP-92 NSCLC) greater than 100 µM. It also gave a GI50 (IGROV1 ovarian) greater than 100 µM, a TGI (IGROV1 ovarian) greater than 100 µM and a GI50 (K-562 leukemia) of 98.4 µM. For the same compound, the TGI (K-562 leukemia) was greater than 100 µM, the GI50 (KM12 colon) was greater than 100 µM and the TGI (KM12 colon) was greater than 100 µM. For the same compound, the GI50 (KM20L2 colon) was greater than 100 µM, the TGI (KM20L2 colon) was greater than 100 µM and the GI50 (LOX IMVI melanoma) was greater than 100 µM. It also gave a TGI (LOX IMVI melanoma) greater than 100 µM, a GI50 (M14 melanoma) greater than 100 µM and a TGI (M14 melanoma) greater than 100 µM. It also gave a GI50 (M19-MEL melanoma) of 78.8 µM, a TGI (M19-MEL melanoma) greater than 100 µM and a GI50 (MALME-3M melanoma) greater than 100 µM. The TGI (MALME-3M melanoma) was greater than 100 µM, the GI50 (MOLT-4 leukemia) was 19 µM and the TGI (MOLT-4 leukemia) was greater than 100 µM. It also gave a GI50 (NCI-H226 lung) of 28.6 µM, a TGI (NCI-H226 lung) greater than 100 µM and a GI50 (NCI-H23 lung) greater than 100 µM. For the same compound, the TGI (NCI-H23 lung) was greater than 100 µM, the GI50 (NCI-H522 lung) was greater than 100 µM and the TGI (NCI-H522 lung) was greater than 100 µM. It also gave a GI50 (OVCAR-3 ovarian) greater than 100 µM, a TGI (OVCAR-3 ovarian) greater than 100 µM and a GI50 (OVCAR-5 ovarian) greater than 100 µM. It also gave a TGI (OVCAR-5 ovarian) greater than 100 µM, a GI50 (OVCAR-8 ovarian) greater than 100 µM and a TGI (OVCAR-8 ovarian) greater than 100 µM. The GI50 (RPMI-8226 leukemia) was 94.4 µM, the TGI (RPMI-8226 leukemia) was greater than 100 µM and the GI50 (RXF 393 renal) was greater than 100 µM. It also gave a TGI (RXF 393 renal) greater than 100 µM, a GI50 (RXF-631 renal) greater than 100 µM and a TGI (RXF-631 renal) greater than 100 µM. For the same compound, the GI50 (SF-268 CNS) was 29.9 µM, the TGI (SF-268 CNS) was greater than 100 µM and the GI50 (SF-295 CNS) was greater than 100 µM. It also gave a TGI (SF-295 CNS) greater than 100 µM, a GI50 (SF-539 CNS) greater than 100 µM and a TGI (SF-539 CNS) greater than 100 µM. For the same compound, the GI50 (SK-MEL-2 melanoma) was greater than 100 µM, the TGI (SK-MEL-2 melanoma) was greater than 100 µM and the GI50 (SK-MEL-28 melanoma) was 31.9 µM. The TGI (SK-MEL-28 melanoma) was greater than 100 µM, the GI50 (SK-OV-3 ovarian) was 70.9 µM and the TGI (SK-OV-3 ovarian) was greater than 100 µM. It also gave a GI50 (SN12C renal) greater than 100 µM, a TGI (SN12C renal) greater than 100 µM and a GI50 (SNB-19 CNS) greater than 100 µM. For the same compound, the TGI (SNB-19 CNS) was greater than 100 µM, the GI50 (SNB-75 CNS) was greater than 100 µM and the TGI (SNB-75 CNS) was greater than 100 µM. The GI50 (SNB-78 CNS) was greater than 100 µM, the TGI (SNB-78 CNS) was greater than 100 µM and the GI50 (SR leukemia) was 39.7 µM. For the same compound, the TGI (SR leukemia) was greater than 100 µM, the GI50 (SW-620 colon) was 78.2 µM and the TGI (SW-620 colon) was greater than 100 µM. For the same compound, the GI50 (TK-10 renal) was greater than 100 µM, the TGI (TK-10 renal) was greater than 100 µM and the GI50 (UACC-257 melanoma) was greater than 100 µM. For the same compound, the TGI (UACC-257 melanoma) was greater than 100 µM, the GI50 (UACC-62 melanoma) was 65.8 µM and the TGI (UACC-62 melanoma) was greater than 100 µM. For the same compound, the GI50 (UO-31 renal) was 76.5 µM, the TGI (UO-31 renal) was greater than 100 µM and the GI50 (XF 498 CNS) was greater than 100 µM. For the same compound, the TGI (XF 498 CNS) was greater than 100 µM.
